# Reference: ChEMBL document CHEMBL3091350, “Synthesis and evaluation of the antimalarial, anticancer, and caspase 3 activities of tetraoxane dimers” (Bioorg Med Chem, 2013)
# Activity calls are given as the source filed them. The calls are words filed in the database; no cut-off is given here.
# Experiments:
# [1] = Cytotoxicity against human HT29-AK cells assessed as cell viability after 24 hrs by MTT assay; assay type: functional, cell-based
# Plasmodium berghei [2] = experiment: Antimalarial activity against Plasmodium berghei ANKA infected in mouse assessed as inhibition of parasitemia at 1 mg/kg, po administered for 3 days post-infection measured on day 4 by Giemsa staining relative to control; assay type: functional
# HL-60 [3] = experiment: Cytotoxicity against human HL60 cells assessed as cell viability after 24 hrs by MTT assay; assay type: functional, cell-based; settings: HL-60, 24 h
# Plasmodium berghei [4] = experiment: Antimalarial activity against Plasmodium berghei ANKA infected in po dosed mouse assessed as inhibition of parasitemia administered for 3 days post-infection measured on day 4 by Giemsa staining; assay type: functional
# Plasmodium berghei [5] = experiment: Antimalarial activity against Plasmodium berghei ANKA infected in mouse assessed as inhibition of parasitemia at 3 mg/kg, po administered for 3 days post-infection measured on day 4 by Giemsa staining relative to control; assay type: functional
# Plasmodium berghei [6] = experiment: Antimalarial activity against Plasmodium berghei ANKA infected in mouse assessed as inhibition of parasitemia at 30 mg/kg, po administered for 3 days post-infection measured on day 4 by Giemsa staining relative to control; assay type: functional
# Plasmodium berghei [7] = experiment: Antimalarial activity against Plasmodium berghei ANKA infected in mouse assessed as inhibition of parasitemia at 10 mg/kg, po administered for 3 days post-infection measured on day 4 by Giemsa staining relative to control; assay type: functional
# Plasmodium falciparum [8] = experiment: Antimalarial activity against chloroquine-sensitive Plasmodium falciparum 3D7 assessed as parasite growth inhibition after 48 hrs by SYBR green-1 dye-based fluorescence assay; assay type: functional, organism-based; settings: 3D7, 48 h
# KB = experiment: Cytotoxicity against human KB cells assessed as cell viability after 24 hrs by MTT assay; assay type: functional, cell-based
# HL-60 [9] = experiment: Induction of apoptosis in human HL60 cells assessed as activation of caspase-3 activity at 0.2 to 0.6 uM after 24 hrs by flow cytometric analysis; assay type: functional, cell-based
# [10] = Therapeutic index, ratio of IC50 for human KB cells to IC50 for chloroquine-resistant Plasmodium falciparum K1; assay type: cell-based; settings: read-out: Ratio IC50
# Plasmodium falciparum [11] = experiment: Antimalarial activity against chloroquine-resistant Plasmodium falciparum K1 assessed as parasite growth inhibition after 48 hrs by SYBR green-1 dye-based fluorescence assay; assay type: functional, organism-based; settings: K1, 48 h
# HL-60 [12] = experiment: Induction of apoptosis in human HL60 cells assessed as activation of caspase-3 activity at 9.4 to 28.2 uM after 24 hrs by flow cytometric analysis; assay type: functional, cell-based
# Plasmodium falciparum [13] = experiment: Antimalarial activity against chloroquine-sensitive Plasmodium falciparum 3D7; assay type: functional, organism-based
# HL-60 [14] = experiment: Induction of apoptosis in human HL60 cells assessed as activation of caspase-3 activity at 10.1 to 30.3 uM after 24 hrs by flow cytometric analysis; assay type: functional, cell-based
SMILES,IC50 [1] [nM],IC50 (HL-60 [3]) [nM],IC50 (Plasmodium falciparum [8]) [nM],IC50 (KB) [nM],selectivity ratio [10],IC50 (Plasmodium falciparum [11]) [nM],further results
C[C@H]1[C@H](OC(=O)CCC(=O)O)O[C@@H]2O[C@@]3(C)CC[C@H]4[C@H](C)CC[C@@H]1[C@@]24OO3 [ARTESUNATE],38800,2000,1.6,–,–,–,inhibition in vivo at 1 mg/kg (Plasmodium berghei [2]): 38.5%; ED50 (Plasmodium berghei [4]): 1.6 mg/kg; inhibition in vivo at 3 mg/kg (Plasmodium berghei [5]): 62.4%; inhibition in vivo at 30 mg/kg (Plasmodium berghei [6]): 99.7%; inhibition in vivo at 10 mg/kg (Plasmodium berghei [7]): 95.2%
CCN(CC)CCCC(C)Nc1ccnc2cc(Cl)ccc12 (stereo unspecified) [CHLOROQUINE],–,–,–,97700,–,–,–
O=C(CC1CCC2(CC1)OOC1(CCCCC1)OO2)NCCCN1CCN(CCCNC(=O)CC2CCC3(CC2)OOC2(CCCCC2)OO3)CC1,–,–,47.1,–,–,–,inhibition in vivo at 1 mg/kg (Plasmodium berghei [2]): 29.9%; ED50 (Plasmodium berghei [4]): 6.4 mg/kg; inhibition in vivo at 3 mg/kg (Plasmodium berghei [5]): 46.1%; inhibition in vivo at 30 mg/kg (Plasmodium berghei [6]): 63.9%; inhibition in vivo at 10 mg/kg (Plasmodium berghei [7]): 54.3%
COc1cc([C@@H]2c3cc4c(cc3[C@H](O)[C@H]3COC(=O)[C@H]23)OCO4)cc(OC)c1OC [PODOFILOX],–,–,–,11.7,–,–,–
O=C(CC1CCC2(CC1)OOC1(CCCCC1)OO2)NCCCCNC(=O)CC1CCC2(CC1)OOC1(CCCCC1)OO2,–,–,28.9,–,–,–,–
C[C@H]1[C@@H](O)O[C@@H]2O[C@@]3(C)CC[C@H]4[C@H](C)CC[C@@H]1[C@@]24OO3 [ARTENIMOL],66100,400,3.5,–,–,–,Activity (HL-60 [9]): Active
CC1(CCC(=O)NCCCN2CCN(CCCNC(=O)CCC3(C)OOC4(CCCCC4)OO3)CC2)OOC2(CCCCC2)OO1 (stereo unspecified),–,–,47.5,25000,40.8,612,inhibition in vivo at 1 mg/kg (Plasmodium berghei [2]): 2.1%; ED50 (Plasmodium berghei [4]): > 30 mg/kg; inhibition in vivo at 3 mg/kg (Plasmodium berghei [5]): 22.3%; inhibition in vivo at 30 mg/kg (Plasmodium berghei [6]): 33.2%; inhibition in vivo at 10 mg/kg (Plasmodium berghei [7]): 21.4%
O=C(CC1CCC2(CC1)OOC1(OO2)C2CC3CC(C2)CC1C3)NCc1cccc(CNC(=O)CC2CCC3(CC2)OOC2(OO3)C3CC4CC(C3)CC2C4)c1 (stereo unspecified),90200,18800,4,–,–,–,Activity (HL-60 [12]): Active
O=C(CC1CCC2(CC1)OOC1(CCCCC1)OO2)NCc1cccc(CNC(=O)CC2CCC3(CC2)OOC2(CCCCC2)OO3)c1,–,–,38.6,–,–,–,–
CN1CCN(C2CCN(C(=O)CC3CCC4(CC3)OOC3(OO4)C4CC5CC(C4)CC3C5)CC2)CC1 (stereo unspecified),–,–,–,–,–,–,IC50 (Plasmodium falciparum [13]): 0.9 nM
CC1(CCC(=O)Nc2cccc(N)c2)OOC2(CCCCC2)OO1,75800,31200,102,–,–,–,–
O=C(CC1CCC2(CC1)OOC1(OO2)C2CC3CC(C2)CC1C3)Nc1ccc(NC(=O)CC2CCC3(CC2)OOC2(OO3)C3CC4CC(C3)CC2C4)cc1 (stereo unspecified),77600,> 100000,58.4,–,–,–,–
O=C(CC1CCC2(CC1)OOC1(CCCCC1)OO2)NCCCNC(=O)CC1CCC2(CC1)OOC1(CCCCC1)OO2,–,–,21.3,–,–,–,–
O=C(CC1CCC2(CC1)OOC1(OO2)C2CC3CC(C2)CC1C3)NCCCN1CCN(CCCNC(=O)CC2CCC3(CC2)OOC2(OO3)C3CC4CC(C3)CC2C4)CC1 (stereo unspecified),–,–,3.5,–,–,–,inhibition in vivo at 1 mg/kg (Plasmodium berghei [2]): 36.1%; ED50 (Plasmodium berghei [4]): 7.7 mg/kg; inhibition in vivo at 3 mg/kg (Plasmodium berghei [5]): 43.2%; inhibition in vivo at 30 mg/kg (Plasmodium berghei [6]): 64.5%; inhibition in vivo at 10 mg/kg (Plasmodium berghei [7]): 46.2%
O=C(CC1CCC2(CC1)OOC1(OO2)C2CC3CC(C2)CC1C3)NCCCCNC(=O)CC1CCC2(CC1)OOC1(OO2)C2CC3CC(C2)CC1C3 (stereo unspecified),–,–,11.2,5040,1870,2.7,inhibition in vivo at 1 mg/kg (Plasmodium berghei [2]): 22.1%; ED50 (Plasmodium berghei [4]): 16.1 mg/kg; inhibition in vivo at 3 mg/kg (Plasmodium berghei [5]): 27.5%; inhibition in vivo at 30 mg/kg (Plasmodium berghei [6]): 54.8%; inhibition in vivo at 10 mg/kg (Plasmodium berghei [7]): 49.6%
CC1(CCC(=O)NCc2cccc(CNC(=O)CCC3(C)OOC4(CCCCC4)OO3)c2)OOC2(CCCCC2)OO1 (stereo unspecified),32800,34300,416,63100,452,136,–
O=C(CC1CCC2(CC1)OOC1(OO2)C2CC3CC(C2)CC1C3)NCCCNC(=O)CC1CCC2(CC1)OOC1(OO2)C2CC3CC(C2)CC1C3 (stereo unspecified),22900,20200,4.7,62100,2530,24.6,Activity (HL-60 [14]): Active
O=C(CC1CCC2(CC1)OOC1(OO2)C2CC3CC(C2)CC1C3)NCCNC(=O)CC1CCC2(CC1)OOC1(OO2)C2CC3CC(C2)CC1C3 (stereo unspecified),–,–,16.9,62700,7040,8.9,–
O=C(CC1CCC2(CC1)OOC1(OO2)C2CC3CC(C2)CC1C3)Nc1cccc(NC(=O)CC2CCC3(CC2)OOC2(OO3)C3CC4CC(C3)CC2C4)c1 (stereo unspecified),92500,> 100000,57.2,134000,1320,102,–
